# Experimental data published in article PMC9321043, “Synthesis, Structure–Activity Relationships, and Parasitological Profiling of Brussonol Derivatives as New Plasmodium falciparum Inhibitors” (Pharmaceuticals, 2022).
# Where two headings read alike, the source gives them in different places.
# Experiments:
# [1] = system: P. falciparum (3D7 strain); experiment: In vitro antiplasmodial activity, P. falciparum blood-stage parasites, SYBR Green I; format: cell-based, Plasmodium falciparum
# Experimental: The P. falciparum strains were cultivated in human blood cells (hRBC) O^+, while P. knowlesi was cultivated in rhesus red blood cells (rRBC) as described. P. falciparum complete RPMI (consisting of RPMI-1640, supplemented with 0.2% NaHCO3, 25 mM HEPES (pH 7.4), 11 mM D-glucose, 10 mg/L hypoxanthine, 25 mg/L gentamicin, and 0.5% (m/v) AlbuMAX II). The parasitemias of these cultures were maintained below 10% with 2.5% hematocrit. P. knowlesi complete RPMI (consisting of RPMI-1640 supplemented with 25 mM HEPES, […] hypoxanthine, 0.26% NaHCO3, 10 mg/L gentamicin, and 1% Albumax II). This culture was maintained with RBCs up to 5% hematocrit. The culture medium was changed daily, and all cultures were maintained under a 90% N2/5% CO2/5% O2 gas mixture at 37 °C. All compounds were purchased from Sigma-Aldrich (Cotia, Brazil).
# The antiplasmodial activity of brussonol and derivatives was evaluated against P. falciparum blood parasites 3D7(chloroquine-sensitive). The parasites were synchronized through sterile 5% (m/v) D-sorbitol treatment over 10 min at 37 °C for the enrichment of ring stages. Centrifugation 600× g over 5 min was used to pellet the cultures. The parasitemia was determined by microscope analysis of thin blood smears stained with Giemsa 10% (v/v) after fixation with methanol. The initial parasitemia was calculated for 1000 red blood cells (RBCs), and cultures were diluted to 0.5% parasitemia and 2% hematocrit by the addition of the appropriate volumes of blood and medium. A total of 180 µL aliquots of parasites were distributed into 96-well plates followed by the addition of 20 µL of previously prepared aliquots of ten-fold concentrated compounds, the range of concentrations tested was 10–1.53 µM. Negative and positive control wells, which correspond to non-parasitized erythrocytes and parasite cultures in the absence of compounds, were set in parallel. The DMSO concentration was maintained below 0.05% (v/v) for all compounds except for brussonol, which was 0.5%. The plates were incubated for 72 h at 37 °C in a humidified incubator with a gas mixture of 90% N2, 5% O2, and 5% CO2. Each test was performed in duplicates, and the results were compared with the control cultures. Once completed incubation, the culture medium was removed, and the cells were resuspended in 100 µL PBS (116 mM NaCl, 10 mM NaH2PO4, 3 mM KH2PO4) and lysed with 100 µL lysis buffer (20 mM Tris base, 5 mM EDTA, 0.0008% (v/v) Triton X-100, 0.008% (m/v) saponin, pH 8.0) containing 0.002% (v/v) SYBR Green I. Plates were incubated for 30 min at room temperature, and a SpectraMAX Gemini EM plate reader (Molecular Devices Corp., Sunnyvale, CA) was used to determine the fluorescence corresponding to parasitic density (excitation at 485 nm, emission at 535 nm). The half-maximal inhibitory concentration (IC50^Pf) was determined by non-linear regression analysis of the resulting concentration–response curve using the software GraphPad Prism version 8.0.1 for Windows, GraphPad Software, San Diego, California USA, www.graphpad.com, accessed on 3 March 2022”.
# [2] = system: P. falciparum 3D7^r_MMV848 strain; experiment: Resistance assessment, 3D7r-MMV848 strain; format: cell-based; settings: Plasmodium falciparum
# [3] = system: P. falciparum; experiment: Speed-of-action assay; format: cell-based, Plasmodium falciparum
# Experimental: The speed-of-action assay assesses the inhibitory activity of the tested compounds after 24, 48, and 72 h of drug exposure. […] Moreover, to confirm the speed-of-action, the morphological development of the parasite in parallel with the IC50 assessment was verified. The parasites in the negative control wells developed according to the expected timeline (Figure 5a). […] Brussonol caused parasite death within the first 24 h of incubation as observed for artesunate (Figure 5a).
# In this method, three 96-well plates were prepared by adding 180 µL of the parasite’s inoculum with 0.5% parasitemia and 2% hematocrit. A serial dilution of the compounds was added to each plate; the starting concentration for brussonol was 6× IC50, while for artesunate and pyrimethamine (fast- and slow-acting controls, respectively) were 10× IC50. In addition, a positive and negative control, which corresponded to parasite cultures with no addition of inhibitor and non-parasitized erythrocytes, respectively, were used for the parasite’s control growth. Each plate was treated for a different period (24, 48, or 72 h), and the first two plates were washed twice with fresh medium to remove the inhibitor, followed by incubation of 48 and 24 h, respectively. […] A statistical analysis using a one-way ANOVA test was done to compare each time point using GraphPad Prism version 8.0.1 for Windows, GraphPad Software, San Diego, California USA, www.graphpad.com, accessed on 1 February 2022. In parallel, the morphological development of the parasite under the compounds’ pressure was assessed by adding the compounds tested at the highest concentration evaluated. Blood smears of each well were made and stained at time points 0, 24, 48, and 72 h.
compound,measurement,setting,value
"CC(C)c1cc2c(c(O)c1O)C[C@@]13CCCC(C)(C)[C@@H]1C[C@@H]2O3 [Compound 1, brussonol]",IC50,"[1]; 3D7 strain, 72 h, SYBR Green I, read-out: IC50^Pf",16 ± 2 µM
same,IC50,"[1]; Plasmodium falciparum, 3D7, 3D7 strain, Table 2 strain panel, read-out: IC50",13 ± 2 µM
same,IC50,"[1]; Plasmodium falciparum, 3D7, 72 h, 3D7 strain, 72 h, SYBR Green I, read-out: IC50^Pf",~20 µM
same,IC50,[2],12 ± 3 µM
same,speed of action,"[3]; IC50 compared after 24, 48 and 72 h of drug exposure",fast-acting in vitro inhibition
same,"time of parasite death (morphological development, pyknotic nuclei)","[3]; highest concentration evaluated, Giemsa smears at 0, 24, 48, 72 h",≤ 24 h
